System: rodent lifetime carcinogenesis bioassay, tumor incidence TD50
Experiment: carcinogenic potency in animals, long-term in vivo studies, CPDB compilation (AID 1745844)
Conditions: rat, strain Fischer 344, by gavage

ClCC(Cl)CCl
TD50 (females, site: mammary gland, lesion: fibroadenoma, dosed 91 weeks, study length 105 weeks): 3.42 mg/kg/day | TD50 (females, site: palate + pharynx + tongue, lesion: squamous-cell papilloma + squamous-cell carcinoma, dosed 91 weeks, study length 105 weeks): 2.93 mg/kg/day | TD50 (females, site: palate + pharynx, lesion: squamous-cell carcinoma, dosed 91 weeks, study length 105 weeks): 8.87 mg/kg/day | TD50 (females, site: palate + tongue, lesion: squamous-cell papilloma, dosed 91 weeks, study length 105 weeks): 5.98 mg/kg/day | TD50 (females, site: palate, lesion: squamous-cell papilloma, dosed 91 weeks, study length 105 weeks): 18.5 mg/kg/day | TD50 (females, site: pharynx + tongue, lesion: squamous-cell carcinoma, dosed 91 weeks, study length 105 weeks): 5.12 mg/kg/day | TD50 (females, site: thyroid gland, lesion: follicular-cell adenoma + follicular-cell carcinoma, dosed 91 weeks, study length 105 weeks): 25.2 mg/kg/day | TD50 (females, site: thyroid gland, lesion: follicular-cell adenoma, dosed 91 weeks, study length 105 weeks): 36.9 mg/kg/day | TD50 (females, site: tongue, lesion: squamous-cell carcinoma + squamous-cell papilloma, dosed 91 weeks, study length 105 weeks): 4.7 mg/kg/day | TD50 (females, site: tongue, lesion: squamous-cell carcinoma, dosed 91 weeks, study length 105 weeks): 10.1 mg/kg/day | TD50 (females, site: tongue, lesion: squamous-cell papilloma, dosed 91 weeks, study length 105 weeks): 9.61 mg/kg/day | TD50 (males, site: Zymbal's gland, lesion: carcinoma, dosed 94 weeks, study length 104 weeks): 297 mg/kg/day | TD50 (males, site: adrenal medulla, lesion: pheochromocytoma benign, bilateral + pheochromocytoma, benign, dosed 94 weeks, study length 104 weeks): 12.4 mg/kg/day | TD50 (males, site: adrenal medulla, lesion: pheochromocytoma benign, bilateral + pheochromocytoma, complex + pheochromocytoma, malignant + pheochromocytoma, benign, dosed 94 weeks, study length 104 weeks): 11.4 mg/kg/day | TD50 (males, site: all sites, lesion: mononuclear-cell leukemia, dosed 94 weeks, study length 104 weeks): 11.9 mg/kg/day | TD50 (males, site: any site (literature study), lesion: several types, types named in the paper, dosed 94 weeks, study length 104 weeks): 1.36 mg/kg/day | TD50 (males, site: colon + jejunum + rectum, lesion: adenocarcinoma + adenomatous polyp, dosed 94 weeks, study length 104 weeks): 73.4 mg/kg/day | TD50 (males, site: colon + jejunum, lesion: adenocarcinoma, dosed 94 weeks, study length 104 weeks): 102 mg/kg/day | TD50 (males, site: colon + rectum, lesion: adenomatous polyp, dosed 94 weeks, study length 104 weeks): 264 mg/kg/day | TD50 (males, site: forestomach + kidney + palate + pancreas + preputial gland + tongue + Zymbal's gland, lesion: squamous-cell carcinoma + squamous-cell papilloma + tubule adenoma + adenoma + acinar-cell adenoma + acinar-cell adenocarcinoma + ca, dosed 94 weeks, study length 104 weeks): 1.1 mg/kg/day | TD50 (males, site: forestomach, lesion: squamous-cell carcinoma + squamous-cell papilloma, dosed 94 weeks, study length 104 weeks): 1.15 mg/kg/day | TD50 (males, site: forestomach, lesion: squamous-cell carcinoma, dosed 94 weeks, study length 104 weeks): 3 mg/kg/day | TD50 (males, site: forestomach, lesion: squamous-cell papilloma, dosed 94 weeks, study length 104 weeks): 1.53 mg/kg/day | TD50 (males, site: kidney, lesion: tubule adenoma, dosed 94 weeks, study length 104 weeks): 4.44 mg/kg/day | TD50 (males, site: liver, lesion: hepatocellular adenoma + hepatoblastoma + hepatocellular carcinoma, dosed 94 weeks, study length 104 weeks): 23 mg/kg/day | TD50 (males, site: liver, lesion: hepatocellular adenoma + hepatocellular carcinoma, dosed 94 weeks, study length 104 weeks): 23 mg/kg/day | TD50 (males, site: liver, lesion: hepatocellular adenoma, dosed 94 weeks, study length 104 weeks): 31.7 mg/kg/day | TD50 (males, site: palate + tongue, lesion: squamous-cell carcinoma + squamous-cell papilloma, dosed 94 weeks, study length 104 weeks): 4.48 mg/kg/day | TD50 (males, site: palate + tongue, lesion: squamous-cell carcinoma, dosed 94 weeks, study length 104 weeks): 8.65 mg/kg/day | TD50 (males, site: palate + tongue, lesion: squamous-cell papilloma, dosed 94 weeks, study length 104 weeks): 8.16 mg/kg/day | TD50 (males, site: palate, lesion: squamous-cell carcinoma, dosed 94 weeks, study length 104 weeks): 11.7 mg/kg/day | TD50 (males, site: palate, lesion: squamous-cell papilloma, dosed 94 weeks, study length 104 weeks): 36.6 mg/kg/day | TD50 (males, site: pancreas, lesion: acinar-cell adenocarcinoma, dosed 94 weeks, study length 104 weeks): 51.5 mg/kg/day | TD50 (males, site: pancreas, lesion: adenoma + acinar-cell adenoma + acinar-cell adenocarcinoma, dosed 94 weeks, study length 104 weeks): 1.65 mg/kg/day | TD50 (males, site: pancreas, lesion: adenoma + acinar-cell adenoma, dosed 94 weeks, study length 104 weeks): 1.65 mg/kg/day | TD50 (males, site: preputial gland, lesion: adenoma + carcinoma, dosed 94 weeks, study length 104 weeks): 9.59 mg/kg/day | TD50 (males, site: preputial gland, lesion: adenoma, dosed 94 weeks, study length 104 weeks): 14 mg/kg/day | TD50 (males, site: preputial gland, lesion: carcinoma, dosed 94 weeks, study length 104 weeks): 28 mg/kg/day | TD50 (males, site: skin, lesion: basal-cell carcinoma + keratoacanthoma + squamous-cell carcinoma + squamous-cell papilloma + trichoepithelioma, dosed 94 weeks, study length 104 weeks): 20.8 mg/kg/day | TD50 (males, site: skin, lesion: squamous-cell carcinoma + squamous-cell papilloma, dosed 94 weeks, study length 104 weeks): 39.6 mg/kg/day | TD50 (males, site: skin, lesion: squamous-cell papilloma, dosed 94 weeks, study length 104 weeks): 51 mg/kg/day | TD50 (males, site: subcutaneous tissue, lesion: fibroma + sarcoma, dosed 94 weeks, study length 104 weeks): 19.6 mg/kg/day | TD50 (males, site: subcutaneous tissue, lesion: fibroma, dosed 94 weeks, study length 104 weeks): 20.2 mg/kg/day | TD50 (males, site: testis, lesion: interstitial-cell adenoma, bilateral + interstitial-cell adenoma, dosed 94 weeks, study length 104 weeks): 1.35 mg/kg/day | TD50 (males, site: thyroid gland, lesion: c-cell adenoma + c-cell carcinoma, dosed 94 weeks, study length 104 weeks): 8.15 mg/kg/day | TD50 (males, site: thyroid gland, lesion: c-cell adenoma, dosed 94 weeks, study length 104 weeks): 10.3 mg/kg/day | TD50 (males, site: thyroid gland, lesion: follicular-cell adenoma + follicular-cell carcinoma, dosed 94 weeks, study length 104 weeks): 35.2 mg/kg/day | TD50 (males, site: tongue, lesion: squamous-cell carcinoma + squamous-cell papilloma, dosed 94 weeks, study length 104 weeks): 7.86 mg/kg/day | TD50 (males, site: tongue, lesion: squamous-cell carcinoma, dosed 94 weeks, study length 104 weeks): 34.7 mg/kg/day | TD50 (males, site: tongue, lesion: squamous-cell papilloma, dosed 94 weeks, study length 104 weeks): 10.2 mg/kg/day

From PubChem BioAssay AID1745844 (Carcinogenic Potency Database (CPDB), 2022)
